From patent US7772285B2, “Benzophenone derivatives or salts thereof” (Toyama Chemical Co., Ltd., priority 2001, dated 2010) come the findings set out here.

Assay [1] has as its target T1, AP-1 complex (Fos/Jun peptide) (Homo sapiens, UniProt P01100+P05412).
T1 construct: made in house; host or cells: chemical peptide synthesis (no expression host)
Kind of assay: Effect on AP-1 binding activity to AP-1 recognition sequence (ELISA). To be noted: inhibition of binding of digoxigenin-labeled AP-1 binding sequence oligonucleotide to Fos/Jun peptide, absorbance 492 nm, read-out: Concentration (μM) at 50% inhibition. As to the method: Test Example 1 Effect on AP-1 Binding Activity to AP-1 Recognition Sequence (ELISA)
Jun peptide and Fos peptide with its N-terminal labeled with biotin via 4 glycine residues containing a DNA binding site [Nature, Vol. 373, 1995, 257-261] were synthesized. Each of the peptides was dissolved in Tris buffer [20 mM Tris-hydrochloric acid (pH 7.5), 50 mM potassium chloride, 1 mM ethylenediaminetetraacetic acid, 10 mM magnesium chloride, 1 mM dithiothreitol, 0.5 M guanidinohydrochloric acid, 30% glycerol], and equimolar amounts of the peptide solutions were mixed with each other to be used as an AP-1 complex (Fos/Jun peptide). The AP-1 complex was added onto a 96-well avidin-coated ELISA plate (10 pmol/well). The plate was washed, blocked by bovine serum albumin, and used for binding assay.
Digoxigenin-labeled double-stranded oligonucleotide (22mer) that contained AP-1 binding sequence (3′-TGAGTCA-5′) synthesized by conventional procedure was reacted in binding reaction solution [25 mM tris-hydrochloric acid (pH 7.9), 0.5 mM ethylenediaminetetraacetic acid, 0.05% Nonidet P-40, 10% glycerol] for 30 minutes at room temperature in the presence or absence of samples. After the reaction, unbound labeled oligonucleotide was removed by washing with HEPES buffer containing 0.05% Tween-20. Then peroxidase-labeled anti-digoxigenin antibody was added to react with the labeled oligonucleotide bound to AP-1. After removing excess antibody by washing with HEPES buffer containing 0.05% Tween-20, incubation was conducted for a certain period with o-phenylene diamine as a substrate in 100 mM citric acid buffer (pH 5.0) containing hydrogen peroxide, sulfuric acid solution was added to each well, and the absorbance (492 nm) was measured. Inhibition rate of each sample was calculated from the absorbance obtained in the binding assay carried out in the presence of the sample, taking the absorbance obtained in the absence of the sample=100%.

The next assay concerns Male DBA/1J mice. The experiment in a line: Type II collagen-induced arthritis in mouse. The class given is in vivo. To be noted: 10 mg/kg orally once a day from 21 to 35 days after the initial inoculation, vs control group; for Bone destruction inhibition rate: X-ray bone destruction score 36 days after initial inoculation; for Arthritis inhibition rate: arthritis score on 36 days after initial inoculation. As to the method:
Test Example 2 Type II Collagen-Induced Arthritis in Mouse
Male DBA/1J mice aged 8 weeks (Charles River Japan) were used. To a solution of 2 mg/mL bovine type II collagen in 0.1 mol/L acetic acid (Koken), an […] of Freund's complete adjuvant (DIFCO) was added to prepare an emulsion, and 0.2 ml of the emulsion was subcutaneously injected in the tail root region of each mouse. The same treatment was given 21 days after the initial inoculation to induce arthritis in the mice. Test compounds were each suspended in 0.5% methylcellulose solution, and 10 mg/kg of each test compound was given orally to mice once a day from 21 to 35 days after the initial inoculation. To a control group (a negative control group), 0.5% methylcellulose solution was given in the same manner.
Taking the maximum score as 12, the arthritis score was calculated to evaluate the severity of arthritis that was evaluated in the following manner: score 0: no change; score 1: swelling on one or two toes, or slight swelling in the carpal and tarsal joints; score 2: swelling and rubor in more joints; score 3: extensive swelling over whole foreleg or hindleg; and total of the four legs was calculated.
X-ray photographs of four paws were taken 36 days after the initial inoculation, and the severity of bone destruction was evaluated as bone destruction score on a maximum scale, the sum of the points for extremities, of 105 points: 0 or 0.5 points in accordance with presence or absence of osteoporosis in the joints and their vicinity, and for bone erosion, no change at 0 point; “partial bone destruction” at 1 point and “complete bone destruction” at 2 points in the second to fifth interdigital joints, the first to fifth metacarpal and metatarsal joints, and carpal, tarsal and calcaneal regions. Inhibition rate was calculated using the following equation: Inhibition rate(%)=100−(score of the group given the test compound/score of the control group)×100

T1 sequence (P01100 137-200 limits assumed): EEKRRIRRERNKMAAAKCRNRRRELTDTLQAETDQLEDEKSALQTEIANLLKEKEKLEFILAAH
T1 sequence (P05412 252-315 limits assumed): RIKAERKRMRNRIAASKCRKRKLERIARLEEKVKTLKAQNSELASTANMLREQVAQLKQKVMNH

With `COc1cc(COc2ccc(C(=O)c3ccc(OC4CCCC4)cc3O)cc2CCC(=O)O)ccc1CCC(=O)O` [49(11)], the IC50 in assay [1] is 390 µM. The same measure, in the same setting: the same measure for `CS(=O)(=O)NC(=O)c1ccc(COc2ccc(C(=O)c3ccc(OC4CCCC4)cc3O)cc2CCC(=O)O)cc1` [49(62)]: 580 µM; for `CCOC(=O)CCc1cc(C(=O)c2ccc(OCC(C)C)cc2O)ccc1OCc1ccc(C(=O)O)cc1` [72(1), 4-{[2-(3-ethoxy-3-oxopropyl)-4-(2-hydroxy-4-isobutoxybenzoyl)phenoxy]methyl} benzoic acid]: 240 µM. Still for that read-out and setting: the same measure for `O=C(O)CCc1cc(C(=O)c2ccc(OC3CCCC3)cc2O)ccc1OCc1ccc(-c2cc(O)no2)cc1` [Example 47, 3-(5-[4-(cyclopentyloxy)-2-hydroxybenzoyl]-2-{[4-(3-hydroxy-5-isoxazolyl)benzyl]oxy}phenyl) propanoic acid]: 170 µM. As for `O=C(O)CCc1cc(C(=O)c2ccc(OC3CCCC3)cc2O)ccc1OCc1csc2c(C(=O)O)cccc12` [Example 45, 3-({2-(2-carboxyethyl)-4-[4-(cyclopentyloxy)-2-hydroxybenzoyl]phenoxy}methyl)-1-benzothiophene-7-carboxilic acid], in assay [1], the IC50 came to 140 µM. In the assay with Male DBA/1J mice, the “Bone destruction inhibition rate” value is reported as 81% and the Arthritis inhibition rate is on record as 55%. The matching figures for `CC(Oc1ccc(C(=O)c2ccc(OC3CCCC3)cc2O)cc1CCC(=O)O)c1ccc(C(=O)O)cc1` (centres unmarked) [49(12)]: 700 µM, 76% and 50%. As to `O=C(O)CCc1cc(C(=O)c2ccc(OCC3CCCC3)cc2O)ccc1OCc1ccc(C(=O)O)cc1` [49(29)], the IC50 in assay [1] worked out at 220 µM. The same measure, in the same setting: the same measure for `O=C(O)CCc1cc(C(=O)c2ccc(OC3CCCC3)cc2O)ccc1OCc1ccc(C(=O)O)cc1` [Example 44, 4-({2-(2-carboxyethyl)-4-[4-(cyclopentyloxy)-2-hydroxybenzoyl]phenoxy}methyl) benzoic acid]: 420 µM.

`CC(C)COc1ccc(C(=O)c2ccc(OCc3ccc(C(=O)O)cc3)c(CCC(=O)O)c2)c(O)c1` [49(47)]: in assay [1], the IC50 was found to be 460 µM. `O=C(O)CCc1cc(C(=O)c2ccc(-c3cccs3)cc2O)ccc1OCc1ccc(C(=O)O)cc1` [49(16)]: in assay [1], the IC50 was 380 µM. Take `O=C(O)CCc1cc(C(=O)c2ccc(OCC3CCCCC3)cc2O)ccc1OCc1ccc(C(=O)O)cc1` [49(56)]: the IC50 in assay [1] was found to be 130 µM.

With `O=C(O)CCc1cc(C(=O)c2ccc(OC3CCCC3)cc2O)ccc1OCc1nc2cc(C(=O)O)ccc2s1` [49(77)], the IC50 in assay [1] was 380 µM. `O=C(O)CCc1cc(C(=O)c2ccc(OC3CCCC3)cc2O)ccc1OCc1ccc(S(=O)(=O)O)cc1` [49(54)]: in assay [1], the IC50 was found to be 270 µM. The same measure, in the same setting: the same measure for `CC(C)COc1cc(COc2ccc(C(=O)c3ccc(OC4CCCC4)cc3O)cc2CCC(=O)O)ccc1C(=O)O` [49(46)]: 320 µM; for `O=C(O)CCc1cc(C(=O)c2ccc(OC3CCCC3)cc2O)ccc1OCc1ccc(C(=O)O)cc1F` [49(51)]: 300 µM. Take `O=C(O)CCc1cc(C(=O)c2ccc(OC3CCCC3)cc2O)ccc1OCc1ccc2c(O)noc2c1` [Example 35, 3-{5-[4-(cyclopentyloxy)-2-hydroxybenzoyl]-2-[(3-hydroxyl-1,2-benzisoxazol-6-yl)methoxy]phenyl}propanoic acid]: the IC50 in assay [1] worked out at 290 µM. Further, in the assay with Male DBA/1J mice, the “Bone destruction inhibition rate” value is 92% and the Arthritis inhibition rate came out at 76%. For the compound `CCOC(=O)c1ccc(COc2ccc(C(=O)c3ccc(OC4CCCC4)cc3O)cc2CCC(=O)O)cc1OC` [54(2), 3-(5-[4-(cyclopentyloxy)-2-hydroxybenzoyl]-2-{[4-(ethoxycarbonyl)-3-methoxybenzyl]oxy}phenyl) propanoic acid], in the assay with Male DBA/1J mice, the “Bone destruction inhibition rate” value amounted to 78% and the Arthritis inhibition rate is reported as 65%. For the compound `CC(C)COc1ccc(C(=O)c2ccc(OCc3ccc(C(=O)NO)cc3)c(CCC(=O)O)c2)c(O)c1` [49(48)], in assay [1], the IC50 stood at 310 µM. The same measure, in the same setting: the same measure for `CC(C)COc1ccc(C(=O)c2ccc(OCc3ccc(C(=O)O)cc3)c(CCC(=O)O)c2)c(OCC(C)C)c1` [49(9)]: 490 µM. On the same count and under the same terms, the same measure for `O=C(O)CCc1cc(C(=O)c2ccc(OC3CCCCCC3)cc2O)ccc1OCc1ccc(C(=O)O)cc1` [49(58)]: 190 µM; for `O=C(O)CCc1ccc(COc2ccc(C(=O)c3ccc(OC4CCCC4)cc3O)cc2CCC(=O)O)cc1` [49(1)]: 330 µM.

Turning to `O=C(O)CCc1cc(C(=O)c2ccc(OCc3ccco3)cc2O)ccc1OCc1ccc(C(=O)O)cc1` [49(40)], the IC50 in assay [1] amounted to 280 µM.

For the compound `O=C(O)CCc1cc(C(=O)c2ccc(C3CCCC3)cc2O)ccc1OCc1ccc(C(=O)O)cc1` [49(39)], the IC50 in assay [1] worked out at 360 µM. Regarding `O=C(O)/C=C/c1ccc(COc2ccc(C(=O)c3ccc(OC4CCCC4)cc3O)cc2CCC(=O)O)cc1` [Example 46, (E)-3-(4-{[4-[4-(cyclopentyloxy)-2-hydroxybenzoyl]-2-(3-hydroxy-3-oxopropyl)phenoxy]methyl}phenyl)-2-propenoic acid], the IC50 in assay [1] came to 330 µM.

In the case of `O=C(O)CCc1cc(C(=O)c2ccc(OC3CCCCC3)cc2O)ccc1OCc1ccc(C(=O)O)cc1` [49(20)], the IC50 in assay [1] was found to be 320 µM. Still for that read-out and setting: the same measure for `O=C(O)CCc1cc(C(=O)c2ccc(OC3CCCC3)cc2O)ccc1OCc1ccc2[nH]c(=O)[nH]c(=O)c2c1` [49(70)]: 180 µM; for `Cc1cc(C(=O)O)ccc1COc1ccc(C(=O)c2ccc(OC3CCCC3)cc2O)cc1CCC(=O)O` [49(3)]: 240 µM; for `CC(C)COc1ccc(C(=O)c2ccc(OCc3ccc(C(=O)NS(C)(=O)=O)cc3)c(CCC(=O)O)c2)c(O)c1` [49(8)]: 320 µM. For `O=C(CCc1cc(C(=O)c2ccc(OC3CCCC3)cc2O)ccc1OCc1ccc2c(O)noc2c1)OCCN1CCOCC1` [Example 76, 2-(4-morpholinyl) ethyl 3-{5-[4-(cyclopentyloxy)-2-hydroxybenzoyl]-2-[(3-hydroxy-1,2-benzisoxazol-6-yl)methoxy]phenyl} propanoate], in the assay with Male DBA/1J mice, the “Bone destruction inhibition rate” value was 99% and the Arthritis inhibition rate is 90%. Regarding `COc1cc(COc2ccc(C(=O)c3ccc(OC4CCCC4)cc3O)cc2CCC(=O)O)ccc1C(=O)O` [Example 48, 4-({2-(2-carboxyethyl)-4-[4-(cyclopentyloxy)-2-hydroxybenzoyl]phenoxy}methyl)-2-methoxybenzoic acid], the IC50 in assay [1] turned out to be 700 µM. In the assay with Male DBA/1J mice, the “Bone destruction inhibition rate” value stood at 64% and the Arthritis inhibition rate is reported as 57%. As for `CN1CCN(c2ccc(COc3ccc(C(=O)c4ccc(OC5CCCC5)cc4O)cc3CCC(=O)O)cc2)C(=O)C1=O` [49(76)], the IC50 in assay [1] amounted to 380 µM. `O=C(O)CCc1cc(C(=O)c2ccc(CC3CCCC3)cc2O)ccc1OCc1ccc(C(=O)O)cc1` [49(22)]: the IC50 in assay [1] was 200 µM. The same measure, in the same setting: the same measure for `O=C(O)CCc1cc(C(=O)c2ccc(OC3CCCC3)cc2O)ccc1OCc1ccc(C(=O)O)cc1O` [32(1), 4-({2-(2-carboxyethyl)-4-[4-(cyclopentyloxy)-2-hydroxybenzoyl]phenoxy}methyl)-3-hydroxybenzoic acid]: 310 µM; for `CC(C)(C)COc1ccc(C(=O)c2ccc(OCc3ccc(C(=O)O)cc3)c(CCC(=O)O)c2)c(O)c1` [49(19)]: 280 µM.
